Source: ChEMBL document CHEMBL3832761, “MMV Pathogen Box Bioactivity Data” (2017)
In brackets after ≈: the same amount, converted by molar mass.

How the values were obtained:
Type in all cases: functional
[1] = tested on: Mycobacterium tuberculosis; assay: AntiMycobacterium tuberculosis activity 1-week 7H9/glucose/BSA/Tx MIC (uM); conditions: 168 h
[2] = tested on: Mycobacterium tuberculosis; assay: (§1) AntiMycobacterium tuberculosis activity day 10 in 7H9/2.5mM butyrate/pH6/0.1mM nitrite MIC90 (uM); conditions: 240 h
[3] = tested on: Mycobacterium tuberculosis; assay: AntiMycobacterium tuberculosis activity Non-Replicating form: Average MIC90 (uM)
[4] = tested on: Mycobacterium tuberculosis; assay: AntiMycobacterium tuberculosis activity 2-week 7H9/ADC/Tw MIC (uM); conditions: 336 h
[5] = tested on: Mycobacterium tuberculosis; assay: AntiMycobacterium tuberculosis activity 2-week Alamar Blue 7H9/cholesterol/BSA/Tx MIC (uM); conditions: 336 h
[6] = tested on: Mycobacterium tuberculosis; assay: AntiMycobacterium tuberculosis activity 1-week 7H9/ADC/Tw MIC (uM); conditions: 168 h
[7] = tested on: Mycobacterium tuberculosis; assay: AntiMycobacterium tuberculosis activity 2-week GAST/Fe MIC (uM); conditions: 336 h
[8] = tested on: Mycobacterium tuberculosis; assay: AntiMycobacterium tuberculosis activity 1-week GAST/Fe MIC (uM); conditions: 168 h
[9] = tested on: Mycobacterium tuberculosis; assay: AntiMycobacterium tuberculosis activity Replicating form: Average MIC90 (uM)
[10] = tested on: Mycobacterium tuberculosis; assay: AntiMycobacterium tuberculosis activity day 21 MIC99 in 7H9/2.5mM butyrate/pH6/0.1mM nitrite MIC99 (uM); conditions: 504 h
[11] = tested on: Mycobacterium tuberculosis; assay: AntiMycobacterium tuberculosis activity day 21 in 7H9/2.5mM butyrate/pH6/0.1mM nitrite MIC90 (uM); conditions: 504 h
[12] = tested on: Mycobacterium tuberculosis; assay: AntiMycobacterium tuberculosis activity 1-week 7H9/cholesterol/BSA/Tx MIC (uM); conditions: 168 h
[13] = tested on: Mycobacterium tuberculosis; assay: AntiMycobacterium tuberculosis activity 2-week Alamar Blue 7H9/ADC/Tw MIC (uM); conditions: 336 h
[14] = tested on: Mycobacterium tuberculosis; assay: AntiMycobacterium tuberculosis activity 2-week 7H9/glucose/BSA/Tx MIC (uM); conditions: 336 h
[15] = tested on: Mycobacterium tuberculosis; assay: as §1; conditions: 240 h; remark: listed apart in the source
[16] = tested on: Mycobacterium tuberculosis; assay: AntiMycobacterium tuberculosis activity 1-week 7H9/DPPC/cholesterol/BSA/Tx MIC (uM); conditions: 168 h
[17] = tested on: Mycobacterium tuberculosis; assay: AntiMycobacterium tuberculosis activity 2-week 7H9/DPPC/cholesterol/BSA/Tx MIC (uM); conditions: 336 h
[18] = tested on: HepG2; assay: HepG2 CC50 (uM) Cytotoxicity; conditions: Homo sapiens

SMILES | MIC [1] [µM] | MIC90 [2] [µM] | MIC90 [3] [µM] | MIC [4] [µM] | MIC [5] [µM] | MIC [6] [µM] | MIC [7] [µM] | MIC [8] [µM] | MIC90 [9] [µM] | MIC [10] [µM] | MIC90 [11] [µM] | MIC [12] [µM] | MIC [13] [µM] | MIC [14] [µM] | MIC90 [15] [µM] | MIC [16] [µM] | MIC [17] [µM] | CC50 [18] [µM]
O=C(Nc1nnc(-c2ccc(Cl)s2)o1)c1ccc(Cl)s1 | 4.7 (≈ 1.63 µg/mL) | > 50 | 2.76 (≈ 0.956 µg/mL) | 9.4 (≈ 3.25 µg/mL) | 6.25 (≈ 2.16 µg/mL) | 9.4 (≈ 3.25 µg/mL) | 1.2 (≈ 0.415 µg/mL) | 0.78 (≈ 0.27 µg/mL) | 35.2 (≈ 12.2 µg/mL) | > 50 | 6.25 (≈ 2.16 µg/mL) | 3.13 (≈ 1.08 µg/mL) | 9.4 (≈ 3.25 µg/mL) | 6.25 (≈ 2.16 µg/mL) | 6.5 (≈ 2.25 µg/mL) | 6.25 (≈ 2.16 µg/mL) | 12.5 (≈ 4.33 µg/mL) | 50.1
CC1COC2(CCN(c3nc(=O)c4cc(C(F)(F)F)cc([N+](=O)[O-])c4s3)CC2)O1 (centres undefined) | < 0.02 | ≤ 0.04 | < 0.01 | < 0.02 | < 0.02 | < 0.02 | < 0.02 | < 0.02 | < 0.01 | ≤ 0.04 | ≤ 0.04 | < 0.02 | < 0.02 | < 0.02 | ≤ 0.04 | < 0.02 | < 0.02 | > 100
COc1ccc(OC(C)C(=O)Nc2ccc(Cl)cc2C)cc1 (centres undefined) | 9.4 (≈ 3.01 µg/mL) | > 50 | 12.2 (≈ 3.91 µg/mL) | 6.25 (≈ 2 µg/mL) | 12.5 (≈ 4 µg/mL) | 4.7 (≈ 1.5 µg/mL) | 2.3 (≈ 0.736 µg/mL) | 2.3 (≈ 0.736 µg/mL) | 14.6 (≈ 4.68 µg/mL) | 50 (≈ 16 µg/mL) | 25 (≈ 7.99 µg/mL) | 9.4 (≈ 3.01 µg/mL) | 6.25 (≈ 2 µg/mL) | 9.4 (≈ 3.01 µg/mL) | 25 (≈ 7.99 µg/mL) | 6.25 (≈ 2 µg/mL) | 6.25 (≈ 2 µg/mL) | > 100
CCOc1ccc(OCC(=O)Nc2cc(C)cc(C)c2)cc1 | 50 (≈ 15 µg/mL) | > 50 | 65 (≈ 19.5 µg/mL) | > 50 | > 50 | ≥ 50 | 4.7 (≈ 1.41 µg/mL) | 3.13 (≈ 0.937 µg/mL) | 82.3 (≈ 24.6 µg/mL) | > 50 | > 50 | 50 (≈ 15 µg/mL) | > 50 | > 50 | > 50 | 50 (≈ 15 µg/mL) | > 50 | > 100
NC(=O)c1cc(-c2ccsc2)ccc1OCCOc1ccccc1 | > 50 | > 50 | 3.96 (≈ 1.34 µg/mL) | > 50 | 6.25 (≈ 2.12 µg/mL) | > 50 | 0.6 (≈ 0.204 µg/mL) | 0.39 (≈ 0.132 µg/mL) | > 100 | > 50 | > 50 | > 50 | 19 (≈ 6.45 µg/mL) | > 50 | > 50 | 12.5 (≈ 4.24 µg/mL) | > 50 | > 100
O=C1O[C@@H](CO)CN1c1cc(F)c(C2=CCN(Cc3ccccc3)CC2)c(F)c1 | 4.7 (≈ 1.88 µg/mL) | > 50 | 19 (≈ 7.6 µg/mL) | 4.7 (≈ 1.88 µg/mL) | 4.7 (≈ 1.88 µg/mL) | 4.7 (≈ 1.88 µg/mL) | 9.4 (≈ 3.76 µg/mL) | 9.4 (≈ 3.76 µg/mL) | 11.6 (≈ 4.65 µg/mL) | > 50 | 50 (≈ 20 µg/mL) | 4.7 (≈ 1.88 µg/mL) | 3.13 (≈ 1.25 µg/mL) | 4.7 (≈ 1.88 µg/mL) | 50 (≈ 20 µg/mL) | 9.4 (≈ 3.76 µg/mL) | 9.4 (≈ 3.76 µg/mL) | 38.8
Cc1cc(C)cc(COc2ccc3c(C)c(CCC(=O)O)c(=O)oc3c2C)c1 | > 50 | > 50 | > 100 | > 50 | > 50 | > 50 | 9.4 (≈ 3.58 µg/mL) | 6.25 (≈ 2.38 µg/mL) | > 100 | > 50 | > 50 | > 50 | > 50 | > 50 | > 50 | 50 (≈ 19 µg/mL) | 50 (≈ 19 µg/mL) | > 100
CNc1snc(C)c1C(=O)NCCOc1ccc(OC)cc1 | 50 (≈ 16.1 µg/mL) | 6.25 (≈ 2.01 µg/mL) | 19.8 (≈ 6.36 µg/mL) | > 50 | 3.13 (≈ 1.01 µg/mL) | > 50 | 0.78 (≈ 0.251 µg/mL) | 0.2 (≈ 0.0643 µg/mL) | > 100 | 50 (≈ 16.1 µg/mL) | 50 (≈ 16.1 µg/mL) | 3.13 (≈ 1.01 µg/mL) | 12.5 (≈ 4.02 µg/mL) | > 50 | 6.25 (≈ 2.01 µg/mL) | 19 (≈ 6.11 µg/mL) | 50 (≈ 16.1 µg/mL) | > 100
